Measured values as given in paper PMC5654968 (NPJ Systems Biology and Applications, 2017).
Read-outs that look alike come from different tables or passages of the source.

Format: in vivo, rat
Experimental: Distilled water and saline were administered as vehicle to rats in each control group. […] Plasma cytokine levels were measured by ELISA or multiplex immunoassay; common metabolites and lipid mediators were analyzed by GC-MS/MS and LC-MS/MS, respectively.
Pathway maps of lipid mediators were created by using CellDesigner 4.4 software (http://www.celldesigner.org). We evaluated the effects of the treatments on specific lipid mediators and categorized them according to COX, CYP and LOX pathways by Fisher’s exact test. The proinflammatory and anti-inflammatory indices were analyzed as described by Tam et al. with modification.[22]

[1] = first value of an incomplete line, time (2h or 4h) not assignable
[2] = PM/P (polyI:C+maoto vs polyI:C), 2h
[3] = PM/P (polyI:C+maoto vs polyI:C), 4h

| SMILES | log2FC of plasma level | log2FC of plasma level [1] | log2FC of plasma level (M/C (maoto vs control), 2h) | log2FC of plasma level (M/C (maoto vs control), 4h) | log2FC of plasma level (P/C (polyI:C vs control), 2h) | log2FC of plasma level (P/C (polyI:C vs control), 4h) | log2FC of plasma level [2] | log2FC of plasma level [3] |
| --- | --- | --- | --- | --- | --- | --- | --- | --- |
| CCCCC[C@H](O)/C=C/[C@@H]1[C@@H](C/C=C\CCCCCC(=O)O)[C@@H](O)C[C@H]1O [1a1b-dihomo-PGF2α] | 1.56 | 0.80 | – | – | – | – | – | – |
| CC/C=C\C/C=C\C/C=C\C/C=C\C/C=C\C=C\C(O)CCC(=O)O (stereo not drawn) [4-HDoHE] | – | – | 0.12 | -0.59 | -0.04 | 0.33 | 0.03 | -0.79 |
| CCCCC/C=C\C/C=C\C/C=C\CC(O)C1CCCC(=O)O1 (stereo not drawn) [5,6-DHET-lactone] | -0.87 | 0.53 | – | – | – | – | – | – |
| CCCCC/C=C\C/C=C\C/C=C\CC(O)C(O)CCCC(=O)O (stereo not drawn) [5,6-DHET] | – | – | 0.42 | -0.54 | -0.14 | 0.11 | 0.23 | -0.71 |
| CC/C=C\C/C=C\C/C=C\C/C=C\CC(O)C(O)CCCC(=O)O (stereo not drawn) [5,6-DiHETE] | – | – | -0.03 | -0.23 | -0.19 | 0.03 | -0.44 | -0.44 |
| CCCCC/C=C\C/C=C\C/C=C\CC1OC1CCCC(=O)O (stereo not drawn) [5,6-EET] | – | – | -0.22 | -0.49 | -0.26 | 0.11 | 0.12 | -0.56 |
| CC/C=C\C/C=C\C/C=C\C/C=C\C=C\C(O)CCCC(=O)O (stereo not drawn) [5-HEPE] | – | – | 0.39 | -0.35 | 0.16 | 0.04 | 0.10 | -0.47 |
| CCCCC/C=C\C/C=C\C/C=C\C=C\[C@@H](O)CCCC(=O)O [5-HETE] | – | – | -0.06 | -0.47 | -0.07 | 0.39 | 0.01 | -0.73 |
| CCCCCC=CCC=CCC=CC=CC(=O)CCCC(=O)O [5-KETE] | – | – | -0.29 | -0.45 | -0.18 | 0.36 | -0.02 | -0.67 |
| CCCCC/C=C\C[C@@H]1[C@H](/C=C/C(O)CCCC(=O)O)[C@@H](O)C[C@H]1O (stereo partly drawn) [5-iPF2α-VI] | – | – | -0.16 | -0.25 | -0.73 | 0.38 | 0.75 | -0.41 |
| CCCCCC(=O)CCC1C(O)CC(O)C1CC(=O)CCCCC(=O)O (stereo not drawn) [6,15-diketo-13,14-dihydro-PGF1α] | -0.52 | 1.63 | – | – | – | – | – | – |
| CCCCC[C@H](O)/C=C/[C@@H]1[C@@H](CC(=O)CCCCC(=O)O)[C@@H](O)C[C@H]1O [6-keto-PGF1α] | – | – | 0.16 | 0.08 | 1.21 | 0.67 | -0.35 | 0.01 |
| CC/C=C\C/C=C\C/C=C\C/C=C\C=C\C(O)C/C=C\CCC(=O)O (stereo not drawn) [7-HDoHE] | – | – | 0.11 | -0.26 | 0.02 | 0.23 | -0.17 | -0.39 |
| CCCCC/C=C\C/C=C\CC(O)C(O)C/C=C\CCCC(=O)O (stereo not drawn) [8,9-DHET] | – | – | 0.82 | -0.02 | 0.07 | 0.42 | 0.16 | -0.59 |
| CCCCC/C=C\C/C=C\CC1OC1C/C=C\CCCC(=O)O (stereo not drawn) [8,9-EET] | – | – | -0.23 | -0.33 | -0.32 | 0.06 | 0.27 | -0.66 |
| CC/C=C\C/C=C\C/C=C\C/C=C\CC(O)/C=C/C=C\CCC(=O)O (stereo not drawn) [8-HDoHE] | – | – | 0.09 | -0.20 | -0.07 | 0.23 | -0.15 | -0.44 |
| CCCCC/C=C\C/C=C\C=C\C(O)C/C=C\CCCC(=O)O (stereo not drawn) [8-HETE] | – | – | 0.09 | -0.40 | -0.12 | 0.39 | 0.05 | -0.62 |
| CCCCCC(=O)/C=C/[C@@H]1[C@H](C/C=C\CCCC(=O)O)[C@@H](O)C[C@H]1O [8-iso-15-keto-PGF2α] | – | – | -0.41 | -0.68 | -0.16 | 1.04 | -0.14 | -0.99 |
| CCCCC[C@H](O)/C=C/[C@H]1[C@H](O)CC(=O)[C@H]1C/C=C\CCCC(=O)O [8-iso-PGE2] | – | – | -0.45 | -0.43 | -0.13 | 0.77 | -0.23 | -0.98 |
| CCCCC/C=C\CC(O)C(O)CCCCCCCC(=O)O (stereo not drawn) [9,10-DiHOME] | – | – | 0.50 | -0.34 | 0.31 | -0.14 | 0.19 | -0.10 |
| CCCCC/C=C\CC1OC1CCCCCCCC(=O)O (stereo not drawn) [9,10-EpOME] | – | – | 0.04 | -0.80 | 0.10 | 0.36 | -0.30 | -1.14 |
| CCCCC/C=C\C/C=C\CC(O)/C=C/C=C\CCCC(=O)O (stereo not drawn) [9-HETE] | – | – | 0.09 | -0.42 | -0.22 | 0.63 | 0.30 | -1.09 |
| CCCCC/C=C\C=C\C(O)CCCCCCCC(=O)O (stereo not drawn) [9-HODE] | – | – | -0.05 | -0.53 | -0.02 | 0.50 | -0.13 | -0.97 |
| CC/C=C\C/C=C\C=C\C(O)CCCCCCCC(=O)O (stereo not drawn) [9-HOTrE] | – | – | 0.03 | -0.77 | 0.04 | 0.61 | -0.05 | -1.19 |
| CCCCC/C=C\C=C\[C@H](CCCCCCCC(=O)O)OO [9-HpODE, 9S-hydroperoxy-10E,12Z-octadecadienoic acid] | – | – | 2.26 | -2.31 | 0.65 | 0.35 | -0.77 | -1.51 |
| CCCCC/C=C/C=C/C(=O)CCCCCCCC(=O)O [9-KODE] | – | – | -0.09 | -0.95 | -0.17 | 0.97 | -0.03 | -1.16 |
